Measurements as given in ChEMBL document CHEMBL5137034, “Chemical space exploration around indolylarylsulfone scaffold led to a novel class of highly active HIV-1 NNRTIs with spiro structural features” (Eur J Med Chem, 2022).

Experiments:
[1] = tested on: Human immunodeficiency virus 1; assay: Antiviral activity against HIV-1 harboring F227L/V106A double mutant infected in human MT4 cells assessed as reduction in virus induced cytotoxicity incubated for 5 to 7 days by MTT assay; format: functional, organism-based; details: Human immunodeficiency virus 1, MT4
[2] = tested on: Human immunodeficiency virus 1; assay: Antiviral activity against wild type HIV-1 3B infected in human MT4 cells assessed as reduction in virus induced cytotoxicity incubated for 5 to 7 days by MTT assay; format: functional, organism-based; details: Human immunodeficiency virus 1, 3B
[3] = Cytotoxicity against human MT4 cells assessed as reduction in cell viability incubated for 5 to 7 days by MTT assay; format: toxicity, cell-based; details: time 5-7 day
[4] = Selectivity index, ratio of CC50 for cytotoxicity against human MT4 cells to EC50 for antiviral activity against wildtype HIV-1 3B infected in human MT4 cells; format: toxicity, cell-based; details: read-out: Ratio CC50/EC50
[5] = tested on: Human immunodeficiency virus 1; assay: Antiviral activity against HIV-1 harboring L100I mutant infected in human MT4 cells assessed as reduction in virus induced cytotoxicity incubated for 5 to 7 days by MTT assay; format: functional, organism-based; details: Human immunodeficiency virus 1, MT4
[6] = tested on: Human immunodeficiency virus 1; assay: Antiviral activity against HIV-1 harboring K103N mutant infected in human MT4 cells assessed as reduction in virus induced cytotoxicity incubated for 5 to 7 days by MTT assay; format: functional, organism-based; details: Human immunodeficiency virus 1, MT4
[7] = tested on: Human immunodeficiency virus 1; assay: Antiviral activity against HIV-1 harboring Y181C mutant infected in human MT4 cells assessed as reduction in virus induced cytotoxicity incubated for 5 to 7 days by MTT assay; format: functional, organism-based; details: Human immunodeficiency virus 1, MT4
[8] = tested on: Human immunodeficiency virus 1; assay: Antiviral activity against HIV-1 harboring Y188L mutant infected in human MT4 cells assessed as reduction in virus induced cytotoxicity incubated for 5 to 7 days by MTT assay; format: functional, organism-based; details: Human immunodeficiency virus 1, MT4
[9] = tested on: Human immunodeficiency virus 1; assay: Antiviral activity against HIV-1 harboring E138K mutant infected in human MT4 cells assessed as reduction in virus induced cytotoxicity incubated for 5 to 7 days by MTT assay; format: functional, organism-based; details: Human immunodeficiency virus 1, MT4
[10] = tested on: Human immunodeficiency virus 1; assay: Antiviral activity against HIV-1 RES056 infected in human MT4 cells assessed as reduction in virus induced cytotoxicity incubated for 5 to 7 days by MTT assay; format: functional, organism-based; details: Human immunodeficiency virus 1, RES056, MT4
[11] = target: Human immunodeficiency virus type 1 reverse transcriptase (Human immunodeficiency virus 1, UniProt Q72547); assay: Inhibition of wild type HIV-1 reverse transcriptase assessed as reduction of biotin-dUTP incorporation into […] using ABTS as substrate incubated for 1 hrs by ELISA analysis
[12] = tested on: Human immunodeficiency virus 1; assay: Potency index, ratio of Nevirapine EC50 to test compound EC50 for antiviral activity against wild type HIV-1 3B infected in human MT4 cells assessed as reduction in virus induced cytotoxicity incubated for 5 to 7 days by MTT assay; format: functional; details: time 5-7 day
[13] = tested on: Human immunodeficiency virus 1; assay: Potency index, ratio of Zidovudine EC50 to test compound EC50 for antiviral activity against wild type HIV-1 3B infected in human MT4 cells assessed as reduction in virus induced cytotoxicity incubated for 5 to 7 days by MTT assay; format: functional; details: time 5-7 day
[14] = tested on: Human immunodeficiency virus 1; assay: Potency index, ratio of 5-chloro-3-(m-tolylsulfonyl)-1H-indole-2-carboxamide EC50 to test compound EC50 for antiviral activity against HIV-1 harboring E138K mutant infected in human MT4 cells assessed as reduction in virus induced cytotoxicity incubated for 5 to 7 days by MTT assay; format: functional; details: time 5-7 day

Structure (SMILES) | EC50 [1] | EC50 [2] | CC50 [3] | selectivity ratio [4] | EC50 [5] | EC50 [6] | EC50 [7] | EC50 [8] | EC50 [9] | EC50 [10] | IC50 [11] | Ratio EC50 [12] | Ratio EC50 [13] | Ratio EC50 [14]
Cc1cc(C)cc(S(=O)(=O)c2c(C(=O)NC3CC4(C3)CN(S(C)(=O)=O)C4)[nH]c3ccc(Cl)cc23)c1 | 410 nM | 11 nM | > 233 µM | > 20900 | 120 nM | 210 nM | 470 nM | 1760 nM | 110 nM | ≥ 12.8 µM | 120 nM | – | – | –
Cc1cc(C)cc(S(=O)(=O)c2c(C(N)=O)[nH]c3ccc(Cl)cc23)c1 | 47 nM | 4.1 nM | – | 2160 | 15 nM | 17 nM | 39 nM | 1100 nM | 900 nM | 1.8 µM | 15 nM | – | – | –
Cc1cc(C)cc(S(=O)(=O)c2c(C(=O)NC3CC4(C3)CN(CC(N)=O)C4)[nH]c3ccc(Cl)cc23)c1 | 500 nM | 11 nM | 6.08 µM | 526 | 100 nM | 140 nM | 390 nM | 1280 nM | 74 nM | ≥ 5.77 µM | – | – | – | –
Cc1cc(C)cc(S(=O)(=O)c2c(C(=O)NC3CC4(CCN(Cc5n[nH]c(=O)n5C)C4)C3)[nH]c3ccc(Cl)cc23)c1 (centres undefined) | 270 nM | 9.9 nM | > 214 µM | > 21600 | 58 nM | 140 nM | 210 nM | 1460 nM | 45 nM | 133 µM | – | 16 | 2 | –
Cc1cc(C)cc(S(=O)(=O)c2c(C(=O)NC3CC4(C3)CN(Cc3n[nH]c(=O)n3C)C4)[nH]c3ccc(Cl)cc23)c1 | 230 nM | 5.3 nM | 65.6 µM | 12400 | 47 nM | 56 nM | 250 nM | 560 nM | 40 nM | 7.45 µM | 170 nM | 30 | 4 | 23
Cc1cc(C)cc(S(=O)(=O)c2c(C(=O)NC3CC4(CCN(CC(N)=O)C4)C3)[nH]c3ccc(Cl)cc23)c1 (centres undefined) | 420 nM | 11 nM | 3.7 µM | 328 | 130 nM | 190 nM | 420 nM | 1420 nM | 72 nM | > 3.7 µM | 130 nM | – | – | –
Cc1cc(C)cc(S(=O)(=O)c2c(C(=O)NC3CC4(CCN(Cc5n[nH]c(=O)n5C)CC4)C3)[nH]c3ccc(Cl)cc23)c1 | 1420 nM | 22 nM | 178 µM | 8350 | 270 nM | 570 nM | 940 nM | 8070 nM | 170 nM | > 178 µM | – | – | – | –
Cc1cc(C)cc(S(=O)(=O)c2c(C(=O)NC3CC4(CCN(S(C)(=O)=O)C4)C3)[nH]c3ccc(Cl)cc23)c1 (centres undefined) | 600 nM | 12 nM | 205 µM | 16500 | 110 nM | 330 nM | 330 nM | 1930 nM | 69 nM | > 205 µM | – | – | – | –
Cc1cc(C)cc(S(=O)(=O)c2c(C(=O)NC3CC4(C3)CN(C(=O)OC(C)(C)C)C4)[nH]c3ccc(Cl)cc23)c1 | – | 70 nM | > 224 µM | > 3220 | – | – | – | – | – | – | – | – | – | –
Cc1cc(C)cc(S(=O)(=O)c2c(C(=O)NC3CC4(CCN(CC(N)=O)CC4)C3)[nH]c3ccc(Cl)cc23)c1 | 480 nM | 9.8 nM | 3.61 µM | 367 | 180 nM | 150 nM | 850 nM | 1290 nM | 200 nM | > 3.61 µM | – | – | – | –
Cc1cn([C@H]2C[C@H](N=[N+]=[N-])[C@@H](CO)O2)c(=O)[nH]c1=O [ZIDOVUDINE] | 4 nM | 21 nM | > 7.48 µM | > 352 | 5 nM | – | 5 nM | 4 nM | 7 nM | 0.01 µM | – | – | – | –
Cc1cc(C)cc(S(=O)(=O)c2c(C(=O)NC3CC4(CCN(S(C)(=O)=O)CC4)C3)[nH]c3ccc(Cl)cc23)c1 | 1290 nM | 21 nM | > 222 µM | > 10300 | 250 nM | 440 nM | 970 nM | > 191000 nM | 100 nM | > 222 µM | – | – | – | –
Cc1cc(C)cc(S(=O)(=O)c2c(C(=O)NC3CC4(CCNC4)C3)[nH]c3ccc(Cl)cc23)c1 (centres undefined) | – | 38 nM | 25.2 µM | 664 | – | – | – | – | – | – | – | – | – | –
Cc1cc(C)cc(S(=O)(=O)c2c(C(=O)NC3CC4(CCN(C(=O)OC(C)(C)C)CC4)C3)[nH]c3ccc(Cl)cc23)c1 | – | 190 nM | 133 µM | 685 | – | – | – | – | – | – | – | – | – | –
O=C1Nc2ccc(Cl)cc2[C@@](C#CC2CC2)(C(F)(F)F)O1 [EFAVIRENZ] | – | 3.2 nM | > 6.33 µM | – | – | 97 nM | – | 89 nM | […] | 0.105 µM | – | – | – | –
Cc1cc(C#N)cc(C)c1Oc1nc(Nc2ccc(C#N)cc2)nc(N)c1Br [ETRAVIRINE] | 16 nM | – | > 4.59 µM | > 1570 | 9 nM | – | – | 15 nM | – | 0.035 µM | – | – | – | –
Cc1cc(C)cc(S(=O)(=O)c2c(C(=O)NC3CC4(CNC4)C3)[nH]c3ccc(Cl)cc23)c1 | – | 41 nM | 28.6 µM | 676 | – | – | – | – | – | – | – | – | – | –
Cc1ccnc2c1NC(=O)c1cccnc1N2C1CC1 [NEVIRAPINE] | 3540 nM | – | > 15 µM | – | – | 3550 nM | 3780 nM | 4420 nM | 158 nM | 2.22 µM | – | – | – | –
Cc1cc(C)cc(S(=O)(=O)c2c(C(=O)NC3CC4(CCNCC4)C3)[nH]c3ccc(Cl)cc23)c1 | – | 49 nM | 24.2 µM | 493 | – | – | – | – | – | – | – | – | – | –
Cc1cc(C)cc(S(=O)(=O)c2c(C(=O)NC3CC4(CCN(C(=O)OC(C)(C)C)C4)C3)[nH]c3ccc(Cl)cc23)c1 (centres undefined) | – | 120 nM | 171 µM | 1470 | – | – | – | – | – | – | – | – | – | –
